Biological target: HCV-NS5BΔ21 RdRp genotype 1b (strain J4) (Hepatitis C virus genotype 1b, UniProt O92972)
Experiment: biochemical
Set-up: His6 (N); made in house; host or cells: Escherichia coli C41(DE3)
Settings: 20 μM compound; for Slope of fluorescence increase: no treatment control slope 62.0
Protocol: The HCV RdRps (NS5B protein) from reference strains H77 (genotype 1a), J4 (genotype 1b) and JFH1 (genotype 2a), truncated of their 21 C-terminal amino acids to ensure solubility (NS5BΔ21) and carrying a hexahistidine tag (His6-Tag) at their N-terminus, were expressed in Escherichia coli C41(DE3) and purified as previously described ([20]). Briefly, cultures were grown at 37°C for ∼1 h and induced with 1 mM isopropyl β-D-thiogalactoside for 4 h at 37°C. […] After sonication, cell lysates were clarified by centrifugation, and chromatography was performed on a Ni-NTA column (Qiagen, Hilden, Germany). The bound protein was eluted in 1 ml fractions with a buffer containing 50 mM NaH2PO4 (pH 8.0), 500 mM NaCl and 250 mM imidazole. NS5BΔ21-enriched fractions were selected using a Bradford colorimetric assay, and HCV-NS5BΔ21 purity was determined by Coomassie-stained sodium dodecyl sulfate-polyacrylamide electrophoresis gel (SDS-PAGE) analysis. Purified NS5BΔ21 fractions were pooled and dialyzed against a buffer containing 5 mM Tris (pH 7.5), 0.2 M sodium acetate, 1 mM DTT, 1 mM ethylenediaminetetraacetic acid (EDTA) and 10% glycerol.
The cell-free HCV-NS5BΔ21 polymerase assay is based on the real-time measurement of the amount of double-stranded RNA synthesized in the presence of HCV-NS5BΔ21, a homopolymeric RNA template (poly U or poly C, GE Healthcare, Chalfont St. Giles, UK) and the corresponding nucleotide, by means of an intercalating agent (SYBR® Green, Applied Biosystems, Carlsbad, CA, USA), as previously described ([20]). For screening, HCV-NS5BΔ21 polymerase activity was quantified by the slope of fluorescence increase in the presence of 20 μM of the tested flavonoid compounds and compared with the control reaction containing no inhibitor. […] The reported values are the average of three independent measurements performed in duplicate. For kinetics analysis, initial reaction velocities were measured at different nucleotide (adenosine triphosphate (ATP) or GTP) and studied compound concentrations, without pre-incubation and in the presence of 50 μg/ml of the corresponding homopolymeric RNA template (Poly U and Poly C, respectively). The concentration of NS5BΔ21 (J4 strain, genotype 1b) in the reaction was 0.1 mg/ml. Kinetics data were graphically represented as double reciprocal plots. Data points were fitted by linear regression to identify the inhibition mode of the compound.

Oc1cc(O)c2c(c1)O[C@H](c1ccc(O)c(O)c1)[C@@H](O)C2 (racemic) [DL-Catechin]
% HCV-NS5BΔ21 inhibition: 17.7%
Slope of fluorescence increase: 51.1

O=C1c2ccc(O)cc2OC(c2cc(O)c(O)c(O)c2)C1O (stereo in doubt) [Dihydrorobinetin]
% HCV-NS5BΔ21 inhibition: 11.0%
Slope of fluorescence increase: 55.2

O=c1cc(-c2ccc(O)c(O)c2)oc2ccccc12 [3’.4’-Dihydroxyflavone]
% HCV-NS5BΔ21 inhibition: 45.4%
Slope of fluorescence increase: 33.9

O=c1cc(-c2ccc(O)c(O)c2)oc2c(O)c(O)ccc12 [3’.4’.7.8-Tetrahydroxyflavone]
% HCV-NS5BΔ21 inhibition: 30.9%
Slope of fluorescence increase: 42.9

O=C1CC(c2ccc(O)cc2)Oc2ccccc21 (stereo not shown) [4’-Hydroxyflavanone]
inhibition at 20 µM: 9.3%
Slope of fluorescence increase: 56.3

O=c1c(O)c(-c2ccc(O)cc2)oc2cc(O)ccc12 [5-Deoxykampferol]
% HCV-NS5BΔ21 inhibition (20 µM): 63.9%
Slope of fluorescence increase: 22.4

O=c1cc(-c2ccccc2)oc2cccc(O)c12 [5-hydroxyflavone]
inhibition at 20 µM: 14.5%
Slope of fluorescence increase: 53.0

O=c1cc(-c2ccccc2)oc2c(O)c(O)cc(O)c12 [5.7.8-Trihydroxyflavone]
% HCV-NS5BΔ21 inhibition: 47.4%
Slope of fluorescence increase: 32.6

O=C1CC(c2ccccc2)Oc2ccc(O)cc21 (stereo not shown) [6-Hydroxyflavanone]
inhibition at 20 µM: 4.1%
Slope of fluorescence increase: 59.5

O=c1cc(-c2ccccc2)oc2ccc(O)cc12 [6-Hydroxyflavone]
inhibition at 20 µM: 18.5%
Slope of fluorescence increase: 50.6

O=c1cc(-c2ccccc2)oc2cc(O)c(O)cc12 [6.7 Dihydroxyflavone]
% HCV-NS5BΔ21 inhibition: 37.4%
Slope of fluorescence increase: 38.8

O=c1c(O)c(-c2ccccc2)oc2cc(O)ccc12 [7-hydroxyflavonol]
inhibition at 20 µM: 71.3%
Slope of fluorescence increase: 17.8

O=c1cc(-c2ccc(O)cc2)oc2cc(O)ccc12 [7.4’-Dihydroxyflavone]
% HCV-NS5BΔ21 inhibition: 25.7%
Slope of fluorescence increase: 46.1

O=c1cc(-c2ccccc2)oc2c(O)c(O)ccc12 [7.8 Dihydroxyflavone]
% HCV-NS5BΔ21 inhibition: 30.8%
Slope of fluorescence increase: 42.9

O=c1cc(-c2ccc(O)cc2)oc2cc(O)cc(O)c12 [Apigenin]
inhibition at 20 µM: 62.5%
Slope of fluorescence increase: 23.3

O=c1cc(-c2ccccc2)oc2cc(O)c(O)c(O)c12 [Baicalein]
inhibition at 20 µM: 61.8%
Slope of fluorescence increase: 23.7

O=c1c(O)c(-c2ccccc2O)oc2cc(O)cc(O)c12 [Datiscetin]
inhibition at 20 µM: 70.5%
Slope of fluorescence increase: 18.3

O=c1c(O)c(-c2ccc(O)c(O)c2)oc2cc(O)ccc12 [Fisetin]
inhibition at 20 µM: 65.8%
Slope of fluorescence increase: 21.2

O=C1CC(c2ccccc2)Oc2ccccc21 (stereo not shown) [Flavanone]
inhibition at 20 µM: 7.5%
Slope of fluorescence increase: 57.4

O=c1cc(-c2ccccc2)oc2ccccc12 [Flavone]
inhibition at 20 µM: 13.1%
Slope of fluorescence increase: 53.9

O=C1c2ccc(O)cc2O[C@H](c2ccc(O)c(O)c2)[C@H]1O [Fustin]
inhibition at 20 µM: 14.5%
Slope of fluorescence increase: 53.0

O=c1c(O)c(-c2ccccc2)oc2cc(O)cc(O)c12 [Galangin]
inhibition at 20 µM: 80.8%
Slope of fluorescence increase: 11.9

O=c1c(-c2ccc(O)cc2)coc2cc(O)cc(O)c12 [Genistein]
inhibition at 20 µM: 13.1%
Slope of fluorescence increase: 53.9

O=c1c(O)c(-c2ccc(O)c(O)c2)oc2c(O)c(O)cc(O)c12 [Gossypetin]
inhibition at 20 µM: 74.6%
Slope of fluorescence increase: 15.8

O=c1c(O[C@@H]2O[C@H](CO)[C@H](O)[C@H](O)[C@H]2O)c(-c2ccc(O)c(O)c2)oc2cc(O)cc(O)c12 [Hyperoside]
inhibition at 20 µM: 28.1%
Slope of fluorescence increase: 44.6

COc1cc(-c2oc3cc(O)cc(O)c3c(=O)c2O)ccc1O [Isorhamnetin]
inhibition at 20 µM: 77.6%
Slope of fluorescence increase: 13.9

O=c1c(O)c(-c2ccc(O)cc2)oc2cc(O)cc(O)c12 [Kaempferol]
inhibition at 20 µM: 74.7%
Slope of fluorescence increase: 15.7

O=C1C[C@@H](c2ccc(O)cc2)Oc2cc(O)ccc21 [Liquiritigenin]
% HCV-NS5BΔ21 inhibition: 6.1%
Slope of fluorescence increase: 58.3

O=c1cc(-c2ccc(O)c(O)c2)oc2cc(O)cc(O)c12 [Luteolin]
inhibition at 20 µM: 81.7%
Slope of fluorescence increase: 11.4

O=c1c(O)c(-c2ccc(O)cc2O)oc2cc(O)cc(O)c12 [Morin]
inhibition at 20 µM: 69.3%
Slope of fluorescence increase: 19.0

O=c1c(O)c(-c2cc(O)c(O)c(O)c2)oc2cc(O)cc(O)c12 [Myricetin]
inhibition at 20 µM: 79.2%
Slope of fluorescence increase: 12.9

O=C1C[C@@H](c2ccc(O)cc2)Oc2cc(O)cc(O)c21 [Naringenin]
inhibition at 20 µM: 6%
Slope of fluorescence increase: 58.3

O=c1c(O)c(-c2ccc(O)c(O)c2)oc2cc(O[C@@H]3O[C@H](CO)[C@@H](O)[C@H](O)[C@H]3O)c(O)c(O)c12 [Quercetagetin-7-O glucoside]
% HCV-NS5BΔ21 inhibition: 42.5%
Slope of fluorescence increase: 35.7

COc1cc(OC)c2c(=O)c(OC)c(-c3ccc(OC)c(OC)c3)oc2c1 [Quercetin 3.5.7.3’.4’ pentamethylether]
% HCV-NS5BΔ21 inhibition: 4.0%
Slope of fluorescence increase: 59.6

COc1cc(O)c2c(=O)c(OC)c(-c3ccc(OC)c(OC)c3)oc2c1 [Quercetin 3.7.3’.4’ tétramethylether]
% HCV-NS5BΔ21 inhibition: 14.5%
Slope of fluorescence increase: 53.0

O=c1c(O[C@@H]2O[C@H](CO)[C@@H](O)[C@H](O)[C@H]2O)c(-c2ccc(O)c(O)c2)oc2cc(O)cc(O)c12 [Quercetin-3-O glucopyranoside]
% HCV-NS5BΔ21 inhibition: 25.9%
Slope of fluorescence increase: 46.0

O=c1c(O)c(-c2ccc(O)c(O)c2)oc2cc(O)cc(O)c12 [Quercetin]
inhibition at 20 µM: 83.7%
Slope of fluorescence increase: 10.1

O=c1c(O)c(-c2cc(O)c(O)c(O)c2)oc2cc(O)ccc12 [Robinetin]
inhibition at 20 µM: 55.9%
Slope of fluorescence increase: 27.4

C[C@@H]1O[C@@H](OC[C@H]2O[C@@H](Oc3c(-c4ccc(O)c(O)c4)oc4cc(O)cc(O)c4c3=O)[C@H](O)[C@@H](O)[C@@H]2O)[C@H](O)[C@H](O)[C@H]1O [Rutin]
inhibition at 20 µM: 30.3%
Slope of fluorescence increase: 43.2

O=c1cc(-c2ccc(O)cc2)oc2cc(O)c(O)c(O)c12 [Scutellarein]
inhibition at 20 µM: 67.4%
Slope of fluorescence increase: 20.2

O=c1cc(-c2cc(O)c(O)c(O)c2)oc2cc(O)cc(O)c12 [Tricetin]
inhibition at 20 µM: 69.5%
Slope of fluorescence increase: 18.9
